US20130029962A1, “Substituted Heteroaromatic Pyrazole-Containing Carboxamide and Urea Compounds as Vanilloid Receptor Ligands” (Gruenenthal GmbH, priority 2011, published 2013)

Molecular target: T1, vanilloid receptor 1 (VR1/TRPV1 receptor) (Homo sapiens, UniProt Q8NER1)
T1 construct: expressed in transfected cells; host or cells: CHO K1
Experiment: Functional testing on the vanilloid receptor 1 (VR1/TRPV1): FLIPR Ca2+ influx assay, displacement of capsaicin
Format: cell-based, human being
Set-up: key to mode of action at VR1/TRPV1 (AG, pAG, NE), Cap: AG=agonist; NE=no effect; pAG=partial agonist
Conditions: for Ki: capsaicin (Cap) as stimulus, Ki from IC50 by Cheng-Prusoff, read-out: (f) Ki (human being) [nM] Cap; for inhibition at 5 µM: 5 μM compound, read-out: inhibition (as a percentage) at the concentration after @, Cap; for inhibition at 5 µM / mode of action at VR1/TRPV1 (AG, pAG, NE), Cap: capsaicin (Cap), human being
Method: Furthermore, preference may be given to compounds according to the invention that cause a 50 percent displacement of capsaicin, which is present at a concentration of 100 nM, in a FLIPR assay with CHO K1 cells which were transfected with the human VR1 gene at a concentration of less than 2,000 nM, preferably less than 1,000 nM, particularly preferably less than 300 nM, most particularly preferably less than 100 nM, even more preferably less than 75 nM, additionally preferably less than 50 nM, most preferably less than 10 nM.
In the process, the Ca^2+ influx is quantified in the FLIPR assay with the aid of a Ca^2+-sensitive dye (type Fluo-4, Molecular Probes Europe BV, Leiden, the Netherlands) in a fluorescent imaging plate reader (FLIPR, Molecular Devices, Sunnyvale, USA), as described hereinafter. […]
The number of cells in the suspension is set to 3×10^5 per mL and 150 μL of this suspension are in each case introduced into a recess in the cell culture plates coated as described hereinbefore. In the incubator the plates are left for two to three days at 37° C., 5% by volume of CO2 and 95% relative humidity. Subsequently, the cells are loaded with 2 μM of Fluo-4 and 0.01% by volume of Pluronic F127 (Molecular Probes Europe BV, Leiden, the Netherlands) in HBSS buffer (Hank's buffered saline solution, Gibco Invitrogen GmbH, Karlsruhe, Germany) for 30 min at 37° C., washed 3 times with HBSS buffer and after further incubation for 15 minutes at room temperature used for Ca^2+ measurement in a FLIPR assay. The Ca^2+-dependent fluorescence is in this case measured before and after the addition of substances (λex=488 nm, λem=540 nm). Quantification is carried out by measuring the highest fluorescence intensity (FC, fluorescence counts) over time.
The FLIPR protocol consists of 2 substance additions. First the compounds to be tested (10 μM) are pipetted onto the cells and the Ca^2+ influx is compared with the control (capsaicin 10 μM). This provides the result in % activation based on the Ca^2+ signal after the addition of 10 μM of capsaicin (CP). After 5 minutes' incubation, 100 nM of capsaicin are applied and the Ca^2+ influx is also determined. Desensitising agonists and antagonists lead to suppression of the Ca^2+ influx. The % inhibition is calculated compared to the maximum achievable inhibition with 10 μM of capsazepine. Triple analyses (n=3) are carried out and repeated in at least 3 independent experiments (N=4).
Starting from the percentage displacement caused by different concentrations of the compounds to be tested of general formula I, IC50 inhibitory concentrations which cause a 50-percent displacement of capsaicin were calculated. Ki values for the test substances were obtained by conversion by means of the Cheng-Prusoff equation (Cheng, Prusoff; Biochem. Pharmacol. 22, 3099-3108, 1973).
The affinity of the compounds according to the invention for the vanilloid receptor 1 (VR1/TRPV1 receptor) was determined as described above (pharmacological method I).

T1 sequence (Q8NER1 whole entry): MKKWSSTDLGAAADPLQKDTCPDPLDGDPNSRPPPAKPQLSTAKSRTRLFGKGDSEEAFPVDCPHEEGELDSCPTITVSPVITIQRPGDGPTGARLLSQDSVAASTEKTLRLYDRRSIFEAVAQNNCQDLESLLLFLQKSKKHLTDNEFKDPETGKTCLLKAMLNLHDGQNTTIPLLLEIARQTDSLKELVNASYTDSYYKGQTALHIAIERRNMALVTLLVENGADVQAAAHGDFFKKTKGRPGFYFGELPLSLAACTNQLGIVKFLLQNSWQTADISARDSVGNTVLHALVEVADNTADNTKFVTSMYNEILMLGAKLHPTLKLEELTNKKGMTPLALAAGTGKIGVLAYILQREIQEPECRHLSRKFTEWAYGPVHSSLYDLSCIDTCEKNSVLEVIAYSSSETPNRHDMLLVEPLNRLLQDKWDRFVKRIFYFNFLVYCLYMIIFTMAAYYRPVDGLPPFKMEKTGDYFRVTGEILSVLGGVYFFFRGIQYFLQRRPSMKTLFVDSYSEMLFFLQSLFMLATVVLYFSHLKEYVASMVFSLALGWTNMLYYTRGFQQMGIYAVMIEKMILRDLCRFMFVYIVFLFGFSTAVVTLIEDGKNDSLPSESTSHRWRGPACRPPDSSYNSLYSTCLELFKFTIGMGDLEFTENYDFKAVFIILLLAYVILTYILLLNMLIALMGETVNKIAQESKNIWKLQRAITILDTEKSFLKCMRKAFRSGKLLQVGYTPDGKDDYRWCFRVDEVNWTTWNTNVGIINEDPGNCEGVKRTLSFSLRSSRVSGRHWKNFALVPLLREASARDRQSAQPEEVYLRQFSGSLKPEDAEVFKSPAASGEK

Ki [nM]	inhibition at 5 µM [%]	mode of action at VR1/TRPV1 (AG, pAG, NE), Cap	Structure (SMILES)
5	–	–	CC(C(=O)NCc1cc(C(F)(F)F)nn1-c1cccc(Cl)c1)c1ccc(C(=O)Nc2ccc(F)cc2)nc1 (centres unmarked) [Example 58, 5-(1-((1-(3-chlorophenyl)-3-(trifluoromethyl)-1H-pyrazol-5-yl)methylamino)-1-oxopropan-2-yl)-N-(4-fluorophenyl)picolinamide]
–	24	–	CC(C(=O)NCc1cc(C(F)(F)F)nn1-c1cccc(Cl)c1)c1ccc(C(=O)Nc2ccc(C(F)(F)F)cc2)nc1 (centres unmarked) [Example 59, 5-(1-((1-(3-chlorophenyl)-3-(trifluoromethyl)-1H-pyrazol-5-yl)methylamino)-1-oxopropan-2-yl)-N-(4-(trifluoromethyl)phenyl)picolinamide]
45	–	–	CC(C(=O)NCc1cc(C(C)(C)C)nn1-c1cccc(Cl)c1)c1ccc(C(=O)Nc2ccc(C(F)(F)F)cc2)nc1 (centres unmarked) [Example 61, 5-(1-((3-tert-butyl-1-(3-chlorophenyl)-1H-pyrazol-5-yl)methylamino)-1-oxopropan-2-yl)-N-(4-(trifluoromethyl)phenyl)picolinamide]
6	–	–	CC(C(=O)NCc1cc(C(F)(F)F)nn1-c1cccc(Cl)c1)c1cnc(C(=O)Nc2ccc(F)cc2)nc1 (centres unmarked) [Example 63, 5-(1-((1-(3-chlorophenyl)-3-(trifluoromethyl)-1H-pyrazol-5-yl)methylamino)-1-oxopropan-2-yl)-N-(4-fluorophenyl)pyrimidine-2-carboxamide]
61	–	–	CC(C(=O)NCc1cc(C(F)(F)F)nn1-c1cccc(Cl)c1)c1cnc(C(=O)Nc2ccc(C(F)(F)F)cc2)nc1 (centres unmarked) [Example 64, 5-(1-((1-(3-chlorophenyl)-3-(trifluoromethyl)-1H-pyrazol-5-yl)methylamino)-1-oxopropan-2-yl)-N-(4-(trifluoromethyl)phenyl)pyrimidine-2-carboxamide]
70	–	–	CC(C(=O)NCc1cc(C(C)(C)C)nn1-c1cccc(Cl)c1)c1cnc(C(=O)Nc2ccccc2)nc1 (centres unmarked) [Example 65, 5-(1-((3-tert-butyl-1-(3-chlorophenyl)-1H-pyrazol-5-yl)methylamino)-1-oxopropan-2-yl)-N-phenylpyrimidine-2-carboxamide]
–	73	AG	COCCNc1ccc(NC(=O)NCc2cc(C(C)(C)C)nn2-c2cccc(Cl)c2)cn1 [Example 68, 1-((3-tert-butyl-1-(3-chlorophenyl)-1H-pyrazol-5-yl)methyl)-3-(6-(2-methoxyethylamino)pyridin-3-yl)urea]
8	–	–	O=C(NCc1cc(C(F)(F)F)nn1-c1cccc(Cl)c1)Nc1ccc(NCCO)nc1 [Example 71, 1-((1-(3-chlorophenyl)-3-(trifluoromethyl)-1H-pyrazol-5-yl)methyl)-3-(6-(2-hydroxyethylamino)pyridin-3-yl)urea]
–	31	–	COCCN(C)c1ccc(NC(=O)NCc2cc(C(F)(F)F)nn2-c2cccc(Cl)c2)cn1 [Example 89, 1-((1-(3-chlorophenyl)-3-(trifluoromethyl)-1H-pyrazol-5-yl)methyl)-3-(6-((2-methoxyethyl)(methyl)amino)pyridin-3-yl)urea]
44	–	–	CN(CCO)c1ccc(NC(=O)NCc2cc(C(F)(F)F)nn2-c2cccc(Cl)c2)cn1 [Example 90, 1-((1-(3-chlorophenyl)-3-(trifluoromethyl)-1H-pyrazol-5-yl)methyl)-3-(6-((2-hydroxyethyl)(methyl)amino)pyridin-3-yl)urea]
26	–	–	CC(C(=O)NCc1cc(C(F)(F)F)nn1-c1cccc(Cl)c1)c1ccc(NC(=O)c2ccccc2)nc1 (centres unmarked) [Example 92, N-(5-(1-((1-(3-chlorophenyl)-3-(trifluoromethyl)-1H-pyrazol-5-yl)methylamino)-1-oxopropan-2-yl)pyridin-2-yl)benzamide]

The remaining lines, values behind:

Structure (SMILES)	Ki [nM]	inhibition at 5 µM [%]	mode of action at VR1/TRPV1 (AG, pAG, NE), Cap
CC(C(=O)NCc1cc(C(C)(C)C)nn1-c1cccc(Cl)c1)c1ccc(C(=O)Nc2ccc(F)cc2)nc1 (centres unmarked) [Example 60, 5-(1-((3-tert-butyl-1-(3-chlorophenyl)-1H-pyrazol-5-yl)methylamino)-1-oxopropan-2-yl)-N-(4-fluorophenyl)picolinamide]	4	–	–
CC(C(=O)NCc1cc(C(F)(F)F)nn1-c1cccc(Cl)c1)c1cnc(C(=O)Nc2ccccc2)nc1 (centres unmarked) [Example 62, 5-(1-((1-(3-chlorophenyl)-3-(trifluoromethyl)-1H-pyrazol-5-yl)methylamino)-1-oxopropan-2-yl)-N-phenylpyrimidine-2-carboxamide]	–	53	–
CC(C(=O)NCc1cc(C(C)(C)C)nn1-c1cccc(Cl)c1)c1cnc(C(=O)Nc2ccc(F)cc2)nc1 (centres unmarked) [Example 66, 5-(1-((3-tert-butyl-1-(3-chlorophenyl)-1H-pyrazol-5-yl)methylamino)-1-oxopropan-2-yl)-N-(4-fluorophenyl)pyrimidine-2-carboxamide]	3	–	–
CC(C(=O)NCc1cc(C(C)(C)C)nn1-c1cccc(Cl)c1)c1cnc(C(=O)Nc2ccc(C(F)(F)F)cc2)nc1 (centres unmarked) [Example 67, 5-(1-((3-tert-butyl-1-(3-chlorophenyl)-1H-pyrazol-5-yl)methylamino)-1-oxopropan-2-yl)-N-(4-(trifluoromethyl)phenyl)pyrimidine-2-carboxamide]	13	–	–
COCCNc1ccc(NC(=O)NCc2cc(C(F)(F)F)nn2-c2cccc(Cl)c2)cn1 [Example 69, 1-((1-(3-chlorophenyl)-3-(trifluoromethyl)-1H-pyrazol-5-yl)methyl)-3-(6-(2-methoxyethylamino)pyridin-3-yl)urea]	51	–	–
CC(C)(C)c1cc(CNC(=O)Nc2ccc(NCCO)nc2)n(-c2cccc(Cl)c2)n1 [Example 70, 1-((3-tert-butyl-1-(3-chlorophenyl)-1H-pyrazol-5-yl)methyl)-3-(6-(2-hydroxyethylamino)pyridin-3-yl)urea]	3	–	–
O=C(NCc1cc(C2CC2)nn1-c1cccc(Cl)c1)Nc1ccc(NCCO)nc1 [Example 72, 1-((1-(3-chlorophenyl)-3-cyclopropyl-1H-pyrazol-5-yl)methyl)-3-(6-(2-hydroxyethylamino)pyridin-3-yl)urea]	17	–	–
O=C(NCc1cc(C(F)(F)F)nn1-c1ccc(F)c(F)c1)Nc1ccc(NCCO)nc1 [Example 79, 1-((1-(3,4-difluorophenyl)-3-(trifluoromethyl)-1H-pyrazol-5-yl)methyl)-3-(6-(2-hydroxyethylamino)pyridin-3-yl)urea]	26	–	–
Cc1cccc(-n2nc(C(F)(F)F)cc2CNC(=O)Nc2ccc(NCCO)nc2)c1 [Example 81, 1-(6-(2-hydroxyethylamino)pyridin-3-yl)-3-((1-m-tolyl-3-(trifluoromethyl)-1H-pyrazol-5-yl)methyl)urea]	12	–	–
CN(CCO)c1ccc(NC(=O)NCc2cc(C(C)(C)C)nn2-c2cccc(Cl)c2)cn1 [Example 87, 1-((3-tert-butyl-1-(3-chlorophenyl)-1H-pyrazol-5-yl)methyl)-3-(6-((2-hydroxyethyl)(methyl)amino)pyridin-3-yl)urea]	17	–	–
COCCN(C)c1ccc(C(C)C(=O)NCc2cc(C(F)(F)F)nn2-c2cccc(Cl)c2)cn1 (centres unmarked) [Example 88, N-((1-(3-chlorophenyl)-3-(trifluoromethyl)-1H-pyrazol-5-yl)methyl)-2-(6-((2-methoxyethyl)(methyl)amino)pyridin-3-yl)propanamide]	–	55	–
CC(C(=O)NCc1cc(C(C)(C)C)nn1-c1cccc(Cl)c1)c1ccc(NC(=O)c2ccccc2)nc1 (centres unmarked) [Example 91, N-(5-(1-((3-tert-butyl-1-(3-chlorophenyl)-1H-pyrazol-5-yl)methylamino)-1-oxopropan-2-yl)pyridin-2-yl)benzamide]	–	98	AG
CC(C(=O)NCc1cc(C(C)(C)C)nn1-c1cccc(Cl)c1)c1ccc(NC(=O)c2ccc(F)cc2)nc1 (centres unmarked) [Example 93, N-(5-(1-((3-tert-butyl-1-(3-chlorophenyl)-1H-pyrazol-5-yl)methylamino)-1-oxopropan-2-yl)pyridin-2-yl)-4-fluorobenzamide]	2	–	–
